The term Ki denotes the equilibrium dissociation constant of an inhibitor or competing ligand from its target.

Test [1] addresses T1, human recombinant wild-type ALK kinase domain (amino acids 1093-1411) (Homo sapiens, UniProt Q9UM73).
T1 construct: ALK kinase domain (amino acids 1093-1411); made in house
Put plainly: Wild-type ALK enzyme assay (microfluidic mobility shift). It counts as biochemical. Conditions: ATP 60 μM, competitive inhibition fit, read-out: WT ALK enzyme assay (Ki).
Procedure: The reactions were incubated for 1 h at room temperature, stopped by the addition of 0.1 M EDTA, pH 8, and the extent of reactions (˜15-20% conversion with no inhibitor) was determined after electrophoretic separation of the fluorescently labeled peptide substrate and phosphorylated product on an LabChip EZ Reader II (Caliper Life Sciences, Hopkinton, Mass.).

For test [2], the target named is T2, human recombinant L1196M ALK kinase domain (amino acids 1093-1411) (Homo sapiens, UniProt Q9UM73, L1196M).
T2 construct: ALK kinase domain (amino acids 1093-1411); made in house
Put plainly: L1196M mutant ALK enzyme assay (microfluidic mobility shift). It counts as biochemical. Conditions: ATP 60 μM, 0.5 nM enzyme, competitive inhibition fit; read-out: L1196M ALK enzyme assay (Ki).

For `CC1Oc2cc(cnc2N)-c2c(C(C)(C)C)nn(C)c2CN(C)C(=O)c2ncccc21` (stereo not drawn) [Example 67, 7-amino-3-tert-butyl-1,10,16-trimethyl-16,17-dihydro-1H-8,4-(metheno)pyrazolo[4,3-g]pyrido[2,3-l][1,4,10]oxadiazacyclotetradecin-15(10H)-one], the Ki in test [1] is 411 nM; in test [2] it was more than 1500 nM.
As for `CCC1Oc2cc(cnc2N)-c2c(OC)nn(C)c2CN(C)C(=O)c2ccc(F)cc21` (single isomer, unassigned) [Example 24, 7-amino-10-ethyl-12-fluoro-3-methoxy-1,16-dimethyl-16,17-dihydro-1H-8,4-(metheno)pyrazolo[4,3-h][2,5,11]benzoxadiazacyclotetradecin-15(10H)-one], the Ki amounted to 4.6 nM in test [1] and 14 nM in test [2].
For `CC1Oc2cc(cnc2N)-c2c(nn(C)c2C#N)CN(C)C(=O)c2c(F)cccc21` (single isomer, unassigned) [Example 53, 7-amino-14-fluoro-2,10,16-trimethyl-15-oxo-10,15,16,17-tetrahydro-2H-8,4-(metheno)pyrazolo[4,3-h][2,5,11]benzoxadiazacyclotetradecine-3-carbonitrile] the same measures were 25.8 nM and 164 nM.
For `CC1Oc2cc(cnc2N)-c2c(C(C)(C)C)nn(C)c2CN(C)C(=O)c2ncccc21` (single isomer, unassigned) [Example 68, 7-amino-3-tert-butyl-1,10,16-trimethyl-16,17-dihydro-1H-8,4-(metheno)pyrazolo[4,3-g]pyrido[2,3-l][1,4,10]oxadiazacyclotetradecin-15(10H)-one] the same measures were 207 nM and more than 1500 nM.
For `CC(C)Cn1nnc2c1-c1cnc(N)c(c1)O[C@H](C)c1cc(F)ccc1C(=O)N(C)C2` [Example 134, (10R)-7-amino-12-fluoro-10,16-dimethyl-3-(2-methylpropyl)-16,17-dihydro-3H-8,4-(metheno)[1,2,3]triazolo[4,5-h][2,5,11]benzoxadiazacyclotetradecin-15(10H)-one] the same measures were 3 nM and 20.5 nM.
Turning to `CC1Oc2nc(cnc2N)-c2c(nn(C)c2C#N)COCc2ccc(F)cc21` (stereo not drawn) [Example 104, 7-amino-12-fluoro-2,10-dimethyl-2,10,15,17-tetrahydro-8,4-(azeno)pyrazolo[4,3-h][2,11,5]benzodioxazacyclotetradecine-3-carbonitrile], the Ki in test [1] was found to be 8.4 nM; in test [2], 57.5 nM.
The like results for `C[C@H]1Oc2cc(cnc2N)-c2c(cnc3cccnc23)CN(C)C(=O)c2ccc(F)cc21` [Example 103, (11R)-8-amino-13-fluoro-11,17-dimethyl-17,18-dihydro-9,5-(metheno)-[1,5]naphthyridino[4,3-h][2,5,11]benzoxadiazacyclotetradecin-16(11H)-one] were, in that order, 9.1 nM and 131 nM.
The like results for `CC1Oc2cc(cnc2N)-c2c(C(C)(C)C)nn(C)c2CN(C)C(=O)c2ncccc21` (single isomer, unassigned) [Example 69, 7-amino-3-tert-butyl-1,10,16-trimethyl-16,17-dihydro-1H-8,4-(metheno)pyrazolo[4,3-g]pyrido[2,3-l][1,4,10]oxadiazacyclotetradecin-15(10H)-one] were, in that order, more than 3000 nM and more than 3000 nM.
For `COc1c2c(nn1C)CN(C)C(=O)c1ccc(F)cc1C(C)Oc1cc-2cnc1N` (single isomer, unassigned) [Example 20, 7-amino-12-fluoro-3-methoxy-2,10,16-trimethyl-16,17-dihydro-2H-8,4-(metheno)pyrazolo[4,3-h][2,5,11]benzoxadiazacyclotetradecin-15(10H)-one] the same measures were 34 nM and 450 nM.
Regarding `CN1Cc2nn(C)c(C#N)c2-c2cnc(N)c(n2)O[C@@H](CF)c2cc(F)ccc2C1=O` [Example 94, (10R)-7-amino-12-fluoro-10-(fluoromethyl)-2,16-dimethyl-15-oxo-10,15,16,17-tetrahydro-2H-8,4-(azeno)pyrazolo[4,3-h][2,5,11]benzoxadiazacyclotetradecine-3-carbonitrile], the figures for the Ki in test [1] and in test [2] were 930 nM and 698 nM, respectively.
For `Cn1ncc2c1-c1cnc(N)c(c1)OCc1cc(F)ccc1OCCCCC2` [Example 42, 12-fluoro-1-methyl-1,4,5,6,7,8-hexahydro-14H-16,20-(metheno) pyrazolo[4,3-g][1,14,11]benzodioxazacycloheptadecin-17-amine] the same measures were 500 nM and 2.89 nM.
The like results for `CC1Oc2cc(cnc2N)-c2c(cnn2C)CCCCCOc2ccc(F)cc21` (single isomer, unassigned) [Example 130, 12-fluoro-1,14-dimethyl-1,4,5,6,7,8-hexahydro-14H-16,20-(metheno)-pyrazolo-[4,3-g][1,14,11]benzodioxazacycloheptadecin-17-amine] were, in that order, more than 3000 nM and more than 3000 nM.
For `CCN1Cc2c(c(C)nn2C)-c2cnc(N)c(c2)OC(C)c2cc(F)ccc2C1=O` (single isomer, unassigned) [Example 10, 7-amino-16-ethyl-12-fluoro-1,3,10-trimethyl-16,17-dihydro-1H-8,4-(metheno)pyrazolo[4,3-h][2,5,11]benzoxadiazacyclotetradecin-15(10H)-one] the same measures were 13 nM and 34 nM.
Turning to `CN1Cc2nn(C)c(C#N)c2-c2cnc(N)c(c2)OC(CF)c2cc(F)ccc2C1=O` (single isomer, unassigned) [Example 84, 7-amino-12-fluoro-10-(fluoromethyl)-2,16-dimethyl-15-oxo-10,15,16,17-tetrahydro-2H-8,4-(metheno)pyrazolo[4,3-h][2,5,11]benzoxadiazacyclotetradecine-3-carbonitrile], the Ki in test [1] was determined as 29.3 nM; in test [2], 90.2 nM.
The like results for `COc1nn(C)c2c1-c1cnc(N)c(c1)OC(CF)c1cc(F)ccc1C(=O)N(C)C2` (single isomer, unassigned) [Example 87, 7-amino-12-fluoro-10-(fluoromethyl)-3-methoxy-1,16-dimethyl-16,17-dihydro-1H-8,4-(metheno)pyrazolo[4,3-h][2,5,11]benzoxadiazacyclotetradecin-15(10H)-one] were, in that order, 270 nM and 51 nM.
As to “7-amino-12-fluoro-3-methoxy-1,16,17-trimethyl-16,17-dihydro-1H-8,4-(azeno)pyrazolo[4,3-h][2,5,11]benzoxadiazacyclotetradecin-15(10H)-one [Example 126]”, the Ki is 540 nM in test [1] and 1070 nM in test [2].
For `CC1Oc2cc(cnc2N)-c2c(nn(C)c2C2CC2)CN(C)C(=O)c2ccc(F)cc21` (single isomer, unassigned) [Example 16, 7-amino-3-cyclopropyl-12-fluoro-2,10,16-trimethyl-16,17-dihydro-2H-8,4-(metheno)pyrazolo[4,3-h][2,5,11]benzoxadiazacyclotetradecin-15(10H)-one] the same measures were 213 nM and more than 2270 nM.
The like results for `COc1nn(C)c2c1-c1cnc(N)c(c1)OC(C)c1cccnc1C(=O)N(C)C2` (single isomer, unassigned) [Example 66, 7-amino-3-methoxy-1,10,16-trimethyl-16,17-dihydro-1H-8,4-(metheno)-pyrazolo[4,3-g]pyrido[2,3-l][1,4,10]oxadiazacyclotetradecin-15(10H)-one] were, in that order, 19.3 nM and 122 nM.
For `CC1Oc2nc(cnc2N)-c2c(nn(C)c2C#N)COCc2ccc(F)cc21` (single isomer, unassigned) [Example 106, 7-amino-12-fluoro-2,10-dimethyl-2,10,15,17-tetrahydro-8,4-(azeno)pyrazolo[4,3-h][2,11,5]benzodioxazacyclotetradecine-3-carbonitrile] the same measures were more than 3000 nM and more than 3000 nM.
Regarding `CC1Oc2cc(cnc2N)-c2c(cnn2C)CCCCCOc2ccc(F)cc21` (single isomer, unassigned) [Example 131, 12-fluoro-1,14-dimethyl-1,4,5,6,7,8-hexahydro-14H-16,20-(metheno)-pyrazolo-[4,3-g][1,14,11]benzodioxazacycloheptadecin-17-amine], the Ki was determined as 78.3 nM in test [1] and 794 nM in test [2].
The like results for `CC1Oc2cc(cnc2N)-c2c(cnn2C)CCCCCOc2ccc(F)cc21` (stereo not drawn) [Example 129, 12-fluoro-1,14-dimethyl-1,4,5,6,7,8-hexahydro-14H-16,20-(metheno)-pyrazolo-[4,3-g][1,14,11]benzodioxazacycloheptadecin-17-amine] were, in that order, 353 nM and more than 1500 nM.
The like results for `CC1c2nn(C)c(C#N)c2-c2cnc(N)c(n2)OCc2cc(F)ccc2C(=O)N1C` (single isomer, unassigned) [Example 80, 7-amino-12-fluoro-2,16,17-trimethyl-15-oxo-10,15,16,17-tetrahydro-2H-8,4-(azeno)pyrazolo[4,3-h][2,5,11]benzoxadiazacyclotetradecine-3-carbonitrile] were, in that order, more than 3000 nM and more than 3000 nM.
The like results for `CC1Oc2nc(cnc2N)-c2c(nn(C)c2C#N)CN(C)C(=O)c2ccc(F)cc21` (single isomer, unassigned) [Example 33, 7-amino-12-fluoro-2,10,16-trimethyl-15-oxo-10,15,16,17-tetrahydro-2H-8,4-(azeno)pyrazolo[4,3-h][2,5,11]benzoxadiazacyclotetradecine-3-carbonitrile] were, in that order, 1010 nM and more than 2680 nM.
Take `CC1Oc2cc(cnc2N)-c2c(nn(C)c2C2CC2)CN(C)C(=O)c2ccc(F)cc21` (single isomer, unassigned) [Example 15, 7-amino-3-cyclopropyl-12-fluoro-2,10,16-trimethyl-16,17-dihydro-2H-8,4-(metheno)pyrazolo[4,3-h][2,5,11]benzoxadiazacyclotetradecin-15(10H)-one]: the Ki was less than 0.2 nM in test [1] and 2.5 nM in test [2].

(Values after patent US8680111B2 (Pfizer Inc., priority 2012, dated 2014).)
